Values quoted from earlier work as cited in patent US20210189389A1, “METHODS OF MODULATING ANK1” (SOCIETE DES PRODUITS NESTLE S.A., priority 2017, published 2021).

Tested on: ANK1
Settings: effect on ANK1 expression, from Comparative Toxicogenomics Database and cited reference
In the case of `CC(=N)S` [Thioacetamide], the “Interaction Actions” value is listed as “affects expression”. In the case of `CCCc1cc(=O)[nH]c(=S)[nH]1` [Propylthiouracil], the “Interaction Actions” value is listed as “decreases expression”. In the case of `CCCC(CCC)C(=O)O` [Valproic Acid], the “Interaction Actions” value is given as “affects expression”. For `CCCCc1oc2ccccc2c1C(=O)c1cc(I)c(OCCN(CC)CC)c(I)c1` [Amiodarone], the “Interaction Actions” value is listed as “affects expression”. In the case of `CN(C)CCCN1c2ccccc2Sc2ccc(Cl)cc21` [Chlorpromazine], the “Interaction Actions” value is given as “affects expression”. In the case of `NC(=O)N1c2ccccc2C=Cc2ccccc21` [Carbamazepine], the “Interaction Actions” value is given as “affects expression”. In the case of `CC[C@@]1(O)C(=O)OCc2c1cc1n(c2=O)Cc2cc3c(CN(C)C)c(O)ccc3nc2-1` [Topotecan], the “Interaction Actions” value is given as “decreases expression”. In the case of `Brc1c(Br)c(Br)c(Oc2c(Br)c(Br)c(Br)c(Br)c2Br)c(Br)c1Br` [decabromobiphenyl ether], the “Interaction Actions” value is given as “decreases expression”. For `CC(=O)Nc1ccc(O)cc1` [Acetaminophen], the “Interaction Actions” value is listed as “affects expression”. For `ClC1=C(Cl)[C@]2(Cl)[C@@H]3[C@@H]4C[C@@H]([C@H]5O[C@@H]45)[C@@H]3[C@@]1(Cl)C2(Cl)Cl` [Dieldrin], the “Interaction Actions” value is listed as “decreases expression”. In the case of `CC/C(=C(\c1ccccc1)c1ccc(OCCN(C)C)cc1)c1ccccc1` [Tamoxifen], the “Interaction Actions” value is given as “affects expression”. In the case of `O=C1[O][Pt]2([NH][C@@H]3CCCC[C@H]3[NH]2)[O]C1=O` [oxaliplatin], the “Interaction Actions” value is listed as “decreases expression”. For `c1ccc2c(c1)cc1ccc3cccc4ccc2c1c34` [Benzo(a)pyrene], the “Interaction Actions” value is given as “decreases expression”. For Gentamicins, the “Interaction Actions” value is given as “decreases expression”.
